Key:
[1] = biological target: T1, multidrug resistance protein 2 (MRP2) (Homo sapiens, UniProt Q92887); test: inhibition of oxaliplatin-stimulated ([…]) vanadate-sensitive ATPase in membrane vesicles; […] reduction at […]; type: cell-based
T1 construct: gene ABCC2; membrane vesicles from Sf9 cells overexpressing human MRP2

[2] = biological target: T1, multidrug resistance protein 2 (MRP2); test: inhibition of oxaliplatin-stimulated ([…]) vanadate-sensitive ATPase in membrane vesicles; […] reduction at […], no apparent effect at […]; type: cell-based
[3] = biological target: T1, multidrug resistance protein 2 (MRP2); test: vanadate-sensitive ATPase stimulation in Sf9/MRP2 membrane vesicles, with control vesicles; type: biochemical
Source text: vanadate-sensitive ATPase stimulation in Sf9/MRP2 membrane vesicles, with control vesicles on multidrug resistance protein 2 (MRP2) | oxaliplatin stimulated the vanadate-sensitive MRP2 ATPase activities in a concentration-dependent manner

T1 sequence (Q92887 whole entry): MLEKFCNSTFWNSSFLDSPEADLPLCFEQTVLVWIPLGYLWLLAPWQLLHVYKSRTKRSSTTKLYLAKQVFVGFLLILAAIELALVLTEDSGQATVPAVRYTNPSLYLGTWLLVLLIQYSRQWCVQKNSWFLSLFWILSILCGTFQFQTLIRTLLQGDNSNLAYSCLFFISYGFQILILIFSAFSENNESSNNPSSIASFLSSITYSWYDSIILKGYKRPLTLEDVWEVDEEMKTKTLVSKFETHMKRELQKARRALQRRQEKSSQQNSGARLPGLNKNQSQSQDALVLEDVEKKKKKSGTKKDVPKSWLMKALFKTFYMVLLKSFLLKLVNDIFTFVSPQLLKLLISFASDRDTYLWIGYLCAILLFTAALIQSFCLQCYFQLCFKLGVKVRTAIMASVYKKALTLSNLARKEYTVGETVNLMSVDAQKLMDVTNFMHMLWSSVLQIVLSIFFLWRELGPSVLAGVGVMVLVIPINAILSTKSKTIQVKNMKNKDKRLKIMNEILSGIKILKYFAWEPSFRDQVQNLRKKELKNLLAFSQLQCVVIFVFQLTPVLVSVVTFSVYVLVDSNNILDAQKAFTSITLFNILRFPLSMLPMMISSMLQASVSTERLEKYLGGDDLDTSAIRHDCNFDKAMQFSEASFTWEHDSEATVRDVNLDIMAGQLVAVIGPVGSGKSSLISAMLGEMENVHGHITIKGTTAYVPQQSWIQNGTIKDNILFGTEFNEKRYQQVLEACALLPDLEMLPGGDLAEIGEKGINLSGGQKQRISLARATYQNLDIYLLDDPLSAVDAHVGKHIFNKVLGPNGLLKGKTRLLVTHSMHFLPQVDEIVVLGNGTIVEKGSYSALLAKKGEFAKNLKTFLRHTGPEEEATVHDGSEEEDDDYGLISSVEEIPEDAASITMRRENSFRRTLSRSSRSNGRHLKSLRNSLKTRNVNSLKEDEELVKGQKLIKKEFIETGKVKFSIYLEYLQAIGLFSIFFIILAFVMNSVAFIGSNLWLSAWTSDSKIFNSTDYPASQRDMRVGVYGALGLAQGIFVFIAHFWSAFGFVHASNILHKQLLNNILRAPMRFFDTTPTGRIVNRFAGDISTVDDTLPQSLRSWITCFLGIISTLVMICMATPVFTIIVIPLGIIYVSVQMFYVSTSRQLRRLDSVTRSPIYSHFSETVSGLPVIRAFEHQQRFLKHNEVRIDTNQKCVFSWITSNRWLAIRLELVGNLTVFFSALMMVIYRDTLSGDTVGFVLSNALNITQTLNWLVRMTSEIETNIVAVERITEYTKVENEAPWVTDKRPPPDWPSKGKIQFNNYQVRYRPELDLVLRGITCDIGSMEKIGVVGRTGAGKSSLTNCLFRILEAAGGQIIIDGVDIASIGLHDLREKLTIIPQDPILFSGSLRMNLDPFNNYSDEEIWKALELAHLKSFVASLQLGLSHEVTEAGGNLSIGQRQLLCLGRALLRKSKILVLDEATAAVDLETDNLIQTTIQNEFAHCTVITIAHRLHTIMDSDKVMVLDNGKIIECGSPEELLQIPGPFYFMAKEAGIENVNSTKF

Compound: CCc1oc2ccccc2c1C(=O)c1cc(Br)c(O)c(Br)c1 [benzbromarone]
- inhibition at 100 µM [1]: 90%

Compound: O=c1c(O)c(-c2cc(O)c(O)c(O)c2)oc2cc(O)cc(O)c12 [myricetin]
- inhibition at 60 µM [2]: 40%

Compound: O=C1[O][Pt]2([NH][C@@H]3CCCC[C@H]3[NH]2)[O]C1=O [oxaliplatin]
- EC50 [3]: 8.3 ± 0.7 µM
